# Source: ChEMBL document CHEMBL4393714, “Multi-targeting protein-protein interaction inhibitors: Evolution of macrocyclic ligands with embedded carbohydrates (MECs) to improve selectivity” (Eur J Med Chem, 2019)
# Key:
# [1] = molecular target: T1, 5-hydroxytryptamine receptor 2B (Homo sapiens, UniProt P41595); assay: Displacement of [125I](+/-)DOI from human recombinant 5-HT2B receptor at 10 uM measured after 60 mins by scintillation counter method relative to control
# [2] = molecular target: Neuropeptide Y receptor type 2 (Homo sapiens) (UniProt P49146); assay: Displacement of [125I] peptide YY from human neuropeptide Y2 receptor at 10 uM measured after 60 mins by scintillation counter method relative to control
# [3] = molecular target: Nociceptin receptor (Homo sapiens) (UniProt P41146); assay: Displacement of [3H]nociceptin from human recombinant ORL1 at 10 uM measured after 60 mins by scintillation counter method relative to control
# [4] = molecular target: Small conductance calcium-activated potassium channel (Rattus norvegicus) (UniProt P70604+P70606+P70605); assay: Displacement of [125I]apamin from rat brain SKCa at 10 uM measured after 60 mins by scintillation counter method relative to control
# [5] = molecular target: Beta-2 adrenergic receptor (Homo sapiens) (UniProt P07550); assay: Agonist activity at human beta 2 adreno receptor at 10 uM relative to control
# [6] = molecular target: Histamine H1 receptor (Homo sapiens) (UniProt P35367); assay: Displacement of [3H]pyrilamine from human recombinant H1 receptor at 10 uM measured after 60 mins by scintillation counter method relative to control
# [7] = molecular target: Neuromedin-K receptor (Homo sapiens) (UniProt P29371); assay: Displacement of [3H] HSR 142801 from human recombinant neurokinin beta receptor at 10 uM measured after 120 mins by scintillation counter method
# [8] = molecular target: Adrenergic receptor alpha-2 (Rattus norvegicus) (UniProt P22086+P19328+P22909); assay: Displacement of [3H] RX 821002 from rat alpha2 adreno receptor at 10 uM measured after 60 mins by scintillation counter method relative to control; type: protein assay
# [9] = molecular target: 5-hydroxytryptamine receptor 6 (Homo sapiens) (UniProt P50406); assay: Displacement of [3H]LSD from human recombinant 5-HT6 receptor at 10 uM measured after 120 mins by scintillation counter method relative to control
# [10] = molecular target: Somatostatin receptor type 1 (Homo sapiens) (UniProt P30872); assay: Displacement of [125I] tyr11-somatostatin-14 from human recombinant somatostatin receptor type1 at 10 uM measured after 180 mins by scintillation counter method relative to control
# [11] = molecular target: 5-hydroxytryptamine receptor 2C (Homo sapiens, UniProt P28335); assay: Displacement of [3H] mesulergine from human recombinant 5-HT2C receptor measured after 120 mins by scintillation counter method
# [12] = molecular target: Adrenergic receptor alpha-1 (Rattus norvegicus) (UniProt P15823+P23944+P43140); assay: Displacement of [3H] prazosin from rat alpha1 adreno receptor at 10 uM measured after 60 mins by scintillation counter method relative to control; type: protein assay
# [13] = molecular target: Mu-type opioid receptor (Homo sapiens) (UniProt P35372); assay: Displacement of [3H] DAMGO from human recombinant mu opioid receptor at 10 uM measured after 120 mins by scintillation counter method relative to control
# [14] = molecular target: GABA-A receptor; anion channel (Rattus norvegicus) (UniProt O09028+P15431+P18506+P18508+P19969+P20236+P23574+P23576+P28471+P28473+P30191+P62813+P63079+P63138+Q91ZM7+Q9ES14); assay: Displacement of [3H]flunitrazepam from rat GABAA ion channel at 10 uM measured after 120 mins by scintillation counter method relative to control; type: protein-complex assay
# [15] = molecular target: Histamine H2 receptor (Homo sapiens) (UniProt P25021); assay: Displacement of [125I]APT from human recombinant H2 receptor at 10 uM measured after 120 mins by scintillation counter method relative to control
# [16] = molecular target: Endothelin-1 receptor (Homo sapiens) (UniProt P25101); assay: Displacement of [125I]endothelin-1 from human recombinant ETA receptor at 10 uM measured after 120 mins by scintillation counter method relative to control
# [17] = molecular target: Cholecystokinin receptor type A (Homo sapiens) (UniProt P32238); assay: Displacement of [125I]CCK-8s from human recombinant CCK1 receptor at 10 uM measured after 60 mins by scintillation counter method relative to control
# [18] = molecular target: D(2) dopamine receptor (Homo sapiens) (UniProt P14416); assay: Displacement of [3H]methyl-spiperone from human recombinant D2S receptor at 10 uM measured after 60 mins by scintillation counter method relative to control
# [19] = molecular target: Type-1 angiotensin II receptor (Homo sapiens) (UniProt P30556); assay: Displacement of [125I][Sar1,Ile8]-AT-II from human recombinant AT1 receptor at 10 uM measured after 120 mins by scintillation counter method relative to control
# [20] = molecular target: 5-hydroxytryptamine receptor 7 (Homo sapiens) (UniProt P34969); assay: Displacement of [3H]LSD from human recombinant 5-HT7 receptor at 10 uM measured after 120 mins by scintillation counter method relative to control
# [21] = molecular target: 5-hydroxytryptamine receptor 5A (Homo sapiens) (UniProt P47898); assay: Displacement of [3H]LSD from human recombinant 5-HT5A receptor at 10 uM measured after 120 mins by scintillation counter method relative to control
# [22] = molecular target: 5-hydroxytryptamine receptor 2A (Homo sapiens, UniProt P28223); assay: Displacement of [3H] ketanserin from human recombinant 5-HT2A receptor measured after 60 mins by scintillation counter method
# [23] = molecular target: Muscarinic acetylcholine receptor M3 (Homo sapiens) (UniProt P20309); assay: Displacement of [3H]4-DAMP from human recombinant muscarinic 3 receptor at 10 uM measured after 60 mins by scintillation counter method relative to control
# [24] = molecular target: Kappa-type opioid receptor (Homo sapiens) (UniProt P41145); assay: Displacement of [3H] U69593 from human kappa opioid receptor at 10 uM measured after 60 mins by scintillation counter method relative to control
# [25] = molecular target: Substance-K receptor (Homo sapiens) (UniProt P21452); assay: Displacement of [125I]NKA from human recombinant NK2 receptor at 10 uM measured after 60 mins by scintillation counter method relative to control
# [26] = molecular target: Galanin receptor type 2 (Homo sapiens) (UniProt O43603); assay: Displacement of [125I]galanin from human recombinant GAL2 receptor at 10 uM measured after 120 mins by scintillation counter method relative to control
# [27] = molecular target: Neurotensin receptor type 1 (Homo sapiens) (UniProt P30989); assay: Displacement of [125I]Tyr3-neurotensin from human recombinant neurotensin receptor type1 at 10 uM measured after 60 mins by scintillation counter method relative to control
# [28] = molecular target: Beta-1 adrenergic receptor (Homo sapiens) (UniProt P08588); assay: Displacement of [3H] (-)CGP 12177 from human recombinant beta1 adreno receptor at 10 uM measured after 60 mins by scintillation counter method relative to control
# [29] = molecular target: T1, 5-hydroxytryptamine receptor 2B; assay: Antagonist activity at human recombinant 5-HT2B receptor in CHOK1 cells measured after 30 mins by HTRF assay; type: cell-based
# Rattus norvegicus = species: Rattus norvegicus; assay: Displacement of [3H] batrachotoxinin from rat sodium channel site 2 at 10 uM measured after 60 mins by scintillation counter method relative to control
# T1 sequence (P41595 whole entry): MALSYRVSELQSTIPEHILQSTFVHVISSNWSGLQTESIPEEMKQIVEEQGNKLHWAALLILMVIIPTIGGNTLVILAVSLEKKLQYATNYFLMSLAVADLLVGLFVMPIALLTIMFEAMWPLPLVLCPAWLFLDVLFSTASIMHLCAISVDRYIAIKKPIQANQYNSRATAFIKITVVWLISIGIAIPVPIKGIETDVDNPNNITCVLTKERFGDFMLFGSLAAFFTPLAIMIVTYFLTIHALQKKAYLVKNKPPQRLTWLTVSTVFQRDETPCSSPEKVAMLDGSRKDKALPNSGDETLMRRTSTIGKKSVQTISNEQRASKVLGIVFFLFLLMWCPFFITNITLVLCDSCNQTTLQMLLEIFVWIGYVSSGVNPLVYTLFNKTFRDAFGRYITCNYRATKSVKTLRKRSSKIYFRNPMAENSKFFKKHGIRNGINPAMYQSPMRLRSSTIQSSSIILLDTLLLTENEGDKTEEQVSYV
# 5-hydroxytryptamine receptor 2A, sequence (P28223 whole entry): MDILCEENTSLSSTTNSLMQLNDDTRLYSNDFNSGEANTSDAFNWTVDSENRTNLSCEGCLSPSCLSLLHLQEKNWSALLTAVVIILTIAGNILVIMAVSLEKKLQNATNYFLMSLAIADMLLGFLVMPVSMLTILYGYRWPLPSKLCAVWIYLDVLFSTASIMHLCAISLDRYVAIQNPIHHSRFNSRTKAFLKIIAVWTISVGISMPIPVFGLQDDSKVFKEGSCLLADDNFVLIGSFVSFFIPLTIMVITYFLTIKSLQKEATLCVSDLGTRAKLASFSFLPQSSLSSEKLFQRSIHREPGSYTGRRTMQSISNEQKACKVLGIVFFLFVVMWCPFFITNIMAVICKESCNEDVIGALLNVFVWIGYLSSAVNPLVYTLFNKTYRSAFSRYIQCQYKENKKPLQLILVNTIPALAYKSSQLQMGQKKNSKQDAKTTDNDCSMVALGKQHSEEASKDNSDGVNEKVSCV
# 5-hydroxytryptamine receptor 2C, sequence (P28335 whole entry): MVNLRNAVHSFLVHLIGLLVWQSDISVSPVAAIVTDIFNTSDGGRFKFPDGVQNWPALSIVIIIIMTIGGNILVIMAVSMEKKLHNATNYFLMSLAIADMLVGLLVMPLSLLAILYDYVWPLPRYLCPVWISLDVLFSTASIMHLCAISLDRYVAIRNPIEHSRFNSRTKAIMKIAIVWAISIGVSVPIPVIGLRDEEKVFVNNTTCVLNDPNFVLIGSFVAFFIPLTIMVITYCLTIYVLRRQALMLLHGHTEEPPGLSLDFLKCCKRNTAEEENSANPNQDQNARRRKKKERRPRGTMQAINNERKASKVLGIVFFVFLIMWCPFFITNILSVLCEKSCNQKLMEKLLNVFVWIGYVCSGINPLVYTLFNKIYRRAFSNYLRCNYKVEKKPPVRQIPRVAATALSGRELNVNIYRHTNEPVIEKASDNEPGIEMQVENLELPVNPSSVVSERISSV
# Kappa-type opioid receptor (Homo sapiens), sequence (P41145 whole entry): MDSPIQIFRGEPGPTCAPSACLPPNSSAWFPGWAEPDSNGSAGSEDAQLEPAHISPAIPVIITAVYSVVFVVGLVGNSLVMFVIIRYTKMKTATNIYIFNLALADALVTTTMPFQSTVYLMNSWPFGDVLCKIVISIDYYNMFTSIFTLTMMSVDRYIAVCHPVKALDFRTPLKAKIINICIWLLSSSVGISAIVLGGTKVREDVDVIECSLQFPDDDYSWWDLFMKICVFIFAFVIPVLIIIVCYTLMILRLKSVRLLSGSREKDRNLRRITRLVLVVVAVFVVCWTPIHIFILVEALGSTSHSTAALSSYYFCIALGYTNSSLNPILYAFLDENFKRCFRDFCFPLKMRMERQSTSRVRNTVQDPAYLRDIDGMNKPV
# Beta-2 adrenergic receptor (Homo sapiens), sequence (P07550 whole entry, looked up): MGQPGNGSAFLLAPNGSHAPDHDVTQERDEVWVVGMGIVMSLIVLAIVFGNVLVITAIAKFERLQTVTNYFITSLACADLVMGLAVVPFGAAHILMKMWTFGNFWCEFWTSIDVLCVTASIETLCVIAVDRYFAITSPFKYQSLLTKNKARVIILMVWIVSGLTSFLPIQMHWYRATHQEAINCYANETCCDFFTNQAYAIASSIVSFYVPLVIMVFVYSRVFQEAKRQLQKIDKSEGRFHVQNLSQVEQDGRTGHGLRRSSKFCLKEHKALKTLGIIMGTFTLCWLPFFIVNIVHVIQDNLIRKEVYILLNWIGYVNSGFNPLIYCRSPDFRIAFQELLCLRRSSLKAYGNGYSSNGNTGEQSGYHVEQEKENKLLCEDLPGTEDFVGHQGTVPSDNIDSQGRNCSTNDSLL
# 5-hydroxytryptamine receptor 6 (Homo sapiens), sequence (P50406 whole entry): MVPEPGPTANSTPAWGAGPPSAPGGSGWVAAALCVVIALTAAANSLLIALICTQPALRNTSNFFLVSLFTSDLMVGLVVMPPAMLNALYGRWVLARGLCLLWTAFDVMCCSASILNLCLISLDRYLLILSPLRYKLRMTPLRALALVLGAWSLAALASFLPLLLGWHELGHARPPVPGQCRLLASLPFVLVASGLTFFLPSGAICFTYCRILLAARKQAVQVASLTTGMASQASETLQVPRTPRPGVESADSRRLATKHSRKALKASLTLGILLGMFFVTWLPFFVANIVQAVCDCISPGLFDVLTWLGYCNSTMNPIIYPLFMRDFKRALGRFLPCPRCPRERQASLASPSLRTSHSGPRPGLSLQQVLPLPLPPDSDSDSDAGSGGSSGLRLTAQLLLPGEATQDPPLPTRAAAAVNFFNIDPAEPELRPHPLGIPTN
# Substance-K receptor (Homo sapiens), sequence (P21452 whole entry): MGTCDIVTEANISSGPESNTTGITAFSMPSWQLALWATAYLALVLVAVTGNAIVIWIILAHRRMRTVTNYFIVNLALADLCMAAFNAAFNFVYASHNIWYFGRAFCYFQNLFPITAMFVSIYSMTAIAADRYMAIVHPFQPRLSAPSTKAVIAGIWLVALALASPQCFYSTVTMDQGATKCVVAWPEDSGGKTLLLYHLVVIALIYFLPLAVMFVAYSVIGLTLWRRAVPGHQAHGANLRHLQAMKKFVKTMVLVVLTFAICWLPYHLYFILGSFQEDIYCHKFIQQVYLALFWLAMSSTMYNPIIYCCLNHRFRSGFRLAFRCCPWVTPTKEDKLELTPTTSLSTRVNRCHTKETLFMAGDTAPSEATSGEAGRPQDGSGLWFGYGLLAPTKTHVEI
# Nociceptin receptor (Homo sapiens), sequence (P41146 whole entry): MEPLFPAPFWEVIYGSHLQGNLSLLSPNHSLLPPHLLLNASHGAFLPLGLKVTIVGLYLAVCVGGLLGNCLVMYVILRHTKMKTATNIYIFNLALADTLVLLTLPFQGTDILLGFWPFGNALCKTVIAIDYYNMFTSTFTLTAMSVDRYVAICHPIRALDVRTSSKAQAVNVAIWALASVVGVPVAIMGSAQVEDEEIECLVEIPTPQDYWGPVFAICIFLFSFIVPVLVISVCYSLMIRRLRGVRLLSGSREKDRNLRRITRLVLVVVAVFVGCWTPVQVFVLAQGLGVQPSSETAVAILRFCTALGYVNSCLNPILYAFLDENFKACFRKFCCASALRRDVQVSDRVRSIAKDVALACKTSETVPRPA
# Neuromedin-K receptor (Homo sapiens), sequence (P29371 whole entry): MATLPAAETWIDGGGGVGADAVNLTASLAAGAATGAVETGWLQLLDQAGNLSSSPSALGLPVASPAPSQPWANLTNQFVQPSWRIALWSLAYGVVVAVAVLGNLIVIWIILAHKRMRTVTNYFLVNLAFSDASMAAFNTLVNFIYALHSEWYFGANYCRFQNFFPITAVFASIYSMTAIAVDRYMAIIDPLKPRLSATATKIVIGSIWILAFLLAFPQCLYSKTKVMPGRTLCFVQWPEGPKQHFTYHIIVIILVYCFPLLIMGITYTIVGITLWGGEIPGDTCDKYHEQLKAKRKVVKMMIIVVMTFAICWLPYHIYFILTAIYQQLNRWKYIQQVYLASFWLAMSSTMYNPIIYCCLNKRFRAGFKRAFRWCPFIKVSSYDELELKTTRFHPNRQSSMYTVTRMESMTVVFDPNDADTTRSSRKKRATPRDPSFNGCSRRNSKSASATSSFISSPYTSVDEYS
# Type-1 angiotensin II receptor (Homo sapiens), sequence (P30556 whole entry): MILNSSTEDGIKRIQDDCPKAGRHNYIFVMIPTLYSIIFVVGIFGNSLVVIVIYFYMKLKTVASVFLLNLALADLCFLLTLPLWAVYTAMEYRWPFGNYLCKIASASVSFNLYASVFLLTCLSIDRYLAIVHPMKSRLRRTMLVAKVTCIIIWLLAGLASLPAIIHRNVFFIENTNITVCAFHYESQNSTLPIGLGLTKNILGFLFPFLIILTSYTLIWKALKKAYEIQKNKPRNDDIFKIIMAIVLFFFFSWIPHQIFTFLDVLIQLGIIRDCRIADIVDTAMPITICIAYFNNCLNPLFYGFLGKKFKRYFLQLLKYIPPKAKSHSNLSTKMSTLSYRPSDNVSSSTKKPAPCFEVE
# Muscarinic acetylcholine receptor M3 (Homo sapiens), sequence (P20309 whole entry, looked up): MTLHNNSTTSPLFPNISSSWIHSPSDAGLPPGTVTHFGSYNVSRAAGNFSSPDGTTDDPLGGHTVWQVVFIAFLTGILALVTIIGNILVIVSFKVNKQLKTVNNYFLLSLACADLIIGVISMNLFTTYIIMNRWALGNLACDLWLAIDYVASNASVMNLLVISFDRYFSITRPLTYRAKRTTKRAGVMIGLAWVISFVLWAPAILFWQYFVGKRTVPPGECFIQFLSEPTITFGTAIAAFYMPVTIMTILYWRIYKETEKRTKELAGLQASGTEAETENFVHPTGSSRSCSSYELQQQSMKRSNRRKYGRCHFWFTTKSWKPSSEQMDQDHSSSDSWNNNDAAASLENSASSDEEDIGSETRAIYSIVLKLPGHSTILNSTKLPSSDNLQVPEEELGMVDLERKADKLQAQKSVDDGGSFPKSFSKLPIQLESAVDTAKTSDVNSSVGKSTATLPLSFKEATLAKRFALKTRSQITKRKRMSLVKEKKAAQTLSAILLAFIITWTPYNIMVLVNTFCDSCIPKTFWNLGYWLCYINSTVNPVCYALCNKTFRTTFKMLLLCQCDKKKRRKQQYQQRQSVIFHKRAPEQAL
smiles,measurement,setting,value
CC(C)CCO[C@@H]1[C@H]2OC(C)(C)O[C@H]2[C@H]2Cn3cc(nn3)COCCCCCCN(CCc3ccc4ccccc4c3)CC[C@H]1O2,inhibition,[1],81.6%
same,inhibition,[2],10.8%
same,inhibition,[3],9.9%
same,inhibition,[4],1.4%
same,inhibition,[5],3.9%
same,inhibition,[6],60.5%
same,inhibition,[7],48.3%
same,inhibition,[8],5%
same,inhibition,[9],16.1%
same,inhibition,[10],14%
same,IC50,[11],> 100000 nM
same,Ki,[11],> 100000 nM
same,inhibition,[12],57.7%
same,inhibition,[13],96.5%
same,Activity,[14],5.1%
same,inhibition,[15],27.4%
same,Activity,[16],7.1%
same,inhibition,[17],61.4%
same,inhibition,[18],59.6%
same,inhibition,[19],17.2%
same,inhibition,[20],22.7%
same,inhibition,[21],89%
same,IC50,[22],1800 nM
same,Ki,[22],970 nM
same,inhibition,[23],41.2%
same,inhibition,[24],77.9%
same,inhibition,[25],98.2%
same,Activity,[26],17.4%
same,Activity,[27],15.7%
same,inhibition,[28],10.6%
same,IC50,[29],1600 nM
same,Ki,[29],870 nM
same,inhibition,Rattus norvegicus,102%
